Values after ≈ are worked out from the molar mass of the structure shown.
Key:
[1] = Solubility of FDCA in water; format: physicochemical
[2] = HMF oxidoreductase assay: FDCA formation in cell extract of P. putida_pJT'hmfH; format: biochemical
Procedure: Cell extracts of wildtype C. basilensis HMF14 or P. putida S12 transformants expressing HMF oxidoreductase were prepared from 50-ml late exponential growth phase cultures using MM supplemented with either 12 mM succinate (C. basilensis HMF14, OD600≈1.5) or 20 mM glucose (P. putida S12, OD600≈4). The cultures were harvested by centrifugation and resuspended in 3 ml of assay buffer. Cells were disrupted by sonication, using either a Branson sonifier (micro tip at pulse mode, output set at 3 and percentage duty cycle set to 40%; 3 cycles of sonication: 45 s of pulsing and 15 s pause) or a Sonics Vibra-Cell (Sonics&Materials, USA) (5 mm tapered microtip; pulse mode set to 1 min (0.5 s pulse, 2 sec pause). After sonication, debris was removed by centrifuging at 8228×g for 3 min at 4° C. The supernatant was desalted using a PD10 gel filtration column (GE healthcare) and used as cell extract for HMF oxidoreductase assays. Protein concentration was measured using Bradford reagent (Sigma-Aldrich).
HMF oxidoreductase assays were performed in cell extracts of wildtype C. basilensis HMF14 or P. putida S12 transformants expressing the C. basilensis HMF14 HMF oxidoreductase. As a negative control, wildtype P. putida S12 or a C. basilensis HMF14 mutant was used that carried a transposon insertion in the hmfH gene. […]

Row | solubility ([1]; aqueous buffer, pH 1.0) [µg/mL] | solubility ([1]; pH 0.5, aqueous buffer) [µg/mL] | Molecule | substrate oxidation by the enzyme [2]
1 | ~1500 (≈ 9.61 mM) | ~400 (≈ 2.56 mM) | O=C(O)c1ccc(C(=O)O)o1 [FDCA, 2,5-Furan-dicarboxylic acid] | 
2 |  |  | HmfH: 62 317 Da FAD-dependent GMC-family oxidoreductase of Cupriavidus basilensis HMF14, encoded by hmfH (protein, listed as Cupriavidus basilensis) MDTPRERFDYVIVGGGSAGCVLANRLSQDPAIRVALIEAGVDTPPDAVPAEILDSYPMPLFFGDRYIWPSLQARAVAGGRSKVYEQGRVMGGGSSINVQAANRGLPRDYDEWAASGASGWSWQDVLPYFRHLERDVDYGNSPLHGSHGPVPIRRILPQAWPPFCTEFAHAMGRSGLSALADQNAEFGDGWFPAAFSNLDDKRVSTAIAYLDADTRRRANLRIYAETTVRKLVVSGREARGVIAMRADGSRLALDAGEVIVSAGALQSPAILMRAGIGDAGALQALGIEVVADRPGVGRNLQDHPALTFCQFLAPQYRMPLSRRRASMTAARFSSGVPGGEASDMYLSSSTRAGWHALGNRLGLFFLWCNRPFSRGQVSLAGAQPDVPPMVELNLLDDERDLRRMVAGVRKLVQIVGASALHQHPGDFFPATFSPRVKALSRVSRGNVLLTELLGAVLDVSGPLRRSLIARFVTGGANLASLLTDESALEGFVRQSVFGVWHASGTCRMGAHADRSAVTDAAGRVHDVGRLRVIDASLMPRLPTANTNIPTIMLAEKIADTMQAERRAVRPASSEVAHPS | ability to oxidize HMF-acid to furan-dicarboxylic acid (FDCA)

From patent US9481900B2, “Polypeptides having oxidoreductase activity and their uses” (Purac Biochem B.V., priority 2009, dated 2016)
